Assay [1] concerns A. baumannii strain 5075 (AB5075). Put plainly: Broth microdilution MIC determination of compound alone. The assay is classed as cell-based. Particulars: Acinetobacter baumannii; compound alone; AB5075; read-out: MIC. Here is the method: Our initial screening began by testing a diverse selection of 2-AI compounds from our internal library for their minimal inhibitory concentrations (MIC) against A. baumannii isolate 5075.
Day Cultures (6 h) were subcultured to 5×10^5 CFU/mL in cation adjusted Mueller-Hinton broth (CAMHB). Aliquots (1 mL) were placed in culture tubes, and compound was added from 100 mM stock solutions, such that the compound concentration equaled the highest concentration tested (200 μM or 64 μg/mL). Samples were then aliquoted (200 μL) into the first row of wells of a 96-well plate, with all remaining wells being filled with 100 μL of initial bacterial subculture. The wells in row one were mixed five times before 100 μL was transferred to the following row (row two). Row two was then mixed five times, and 100 μL was transferred to row three. This processed was repeated until the final row had been mixed. This process provided a serial dilution of the compound. Plates were covered with Glad Press n'Seal and were incubated under stationary conditions at 37° C. for 16 hours. MIC values were recorded as the lowest concentration at which no bacterial growth was observed.

For assay [2] the test system is unchanged. The assay is described as follows: Macrolide sensitization / antibiotic resensitization: antibiotic MIC in presence of compound (broth microdilution). It counts as cell-based, Acinetobacter baumannii. Particulars: AB5075; for MIC (μg/mL) of the antibiotic / MIC: antibiotic alone, no compound (control row); for MIC: Acinetobacter baumannii, read-out: MIC (μg/mL) of the antibiotic. Here is the method: A. baumannii 5075 was plated on LB agar, then grown in CAMHB for 6-8 h and this culture was used to inoculate fresh CAMHB (5×10^5 CFU/mL). The resulting suspension was aliquoted (5 mL) into culture tubes and compound, from 100 mM DMSO stock, was added. One aliquot was not treated (control). 1 mL of each sample was transferred to a new culture tube and antibiotic was added. Rows 2-12 of a 96-well microtiter plate were filled with 100 μL/well from the remaining 4 mL bacterial subcultures, allowing the concentration of compound to be kept uniform throughout the antibiotic dilution procedure. Samples containing antibiotic were aliquoted (200 μL) into the corresponding first row wells of the microtiter plate. Row 1 wells were mixed 6 to 8 times then 100 μL was withdrawn and transferred to row 2. Row 2 wells were mixed 6 to 8 times, followed by a 100 μL transfer from row 2 to row 3. This procedure was repeated to serially dilute the rest of the rows of the microtiter plate, with the exception of the final row, to which no antibiotic was added (to check for growth of bacteria in the presence of compound alone). The microtiter plate was then covered, placed in a covered damp plastic container and incubated under stationary conditions at 37° C. After 16-18 hrs minimum inhibitory concentration (MIC) values were recorded as the lowest concentration of antibiotic at which there was no visible growth of bacteria. Experiments were carried out in duplicate each time and repeated at least twice.
The difference in antibiotic MIC between the control (no compound) sample, and the samples containing each compound was recorded as the fold-reduction.
Day Cultures (6 h) were subcultured to 5×10^5 CFU/mL in cation adjusted Mueller-Hinton broth (CAMHB). […] One milliliter of the resulting solution was aliquoted into a separate culture tube and was dosed with antibiotic so that the resulting concentration was the highest desirable concentration to be tested. Bacteria treated with antibiotic alone were used as a control. Row one of a 96-well plate was filled with 200 μL of the antibiotic/compound solution, and the remaining rows were filled with 100 μL of the remaining 4 mL bacterial subculture. The wells in row one were mixed five times before 100 μL was transferred to the following row (row two). Row two was then mixed five times, and 100 μL was transferred to row three. This process was repeated until the second to last row had been reached. The last row is left unexposed to antibiotic in order to serve as a negative control. The antibiotic only treated bacteria was plated by aliquoting 200 μL of the treated bacteria into row one and filling the remaining rows with untreated bacteria from the original bacteria subculture. The rows were mixed in the same way as described above. Plates were covered with Glad Press n'Seal and were incubated under stationary conditions at 37° C. for 16 hours. MIC values were recorded as the lowest concentration at which no bacterial growth was observed. Fold reductions were determined by comparison of the compound treated wells with the antibiotic only treated control wells.
On the technique in general: Dilution methods test growth across graded concentrations, often in twofold steps.

The mark [3] stands for this setting: compound at 30 μM vs antibiotic alone.
Setting [4] is: in presence of compound at 30 μM.
The mark [5] stands for this setting: compound at 60 μM vs antibiotic alone.

Values after ≈ are worked out from the molar mass of the structure shown. Some results are limits rather than exact numbers.

For `CCCCCCc1ccc(-c2c[nH]c(N)n2)cc1`, in assay [1], the MIC was 100 µM (≈ 24.3 µg/mL). On the same count and under the same terms, as for `Nc1nc(CCCNC(=O)c2cc(Br)c(Br)[nH]2)c[nH]1`, the figure is > 200 µM; as for `CCCCCCC(CCCCCC)NC(=O)CCCc1c[nH]c(N)n1`, 100 µM (≈ 35.1 µg/mL); as for `CCCCCCC(=O)Nc1ccc2[nH]c(N)nc2c1`, > 200 µM.

As for `Nc1nc2cc(NC(=O)c3c(F)c(F)c(F)c(F)c3F)ccc2[nH]1`, in assay [1], the MIC is > 200 µM. Take `Cc1ccc(C(=O)Nc2ccc3[nH]c(N)nc3c2)cc1`: the MIC in assay [1] is > 200 µM. Consider `C/C(=C\c1ccccc1)CNC(=O)Cn1cc(CCCCCc2c[nH]c(N)n2)nn1`, for which the MIC in assay [1] is > 200 µM. Turning to `CCCCCCCCCC(=O)NCCn1cc(CCCCCc2c[nH]c(N)n2)nn1`, the MIC in assay [1] is > 200 µM.

`Nc1nc(CCCCCc2cn(-c3ccc(C(=O)NCCc4ccccc4)cc3)nn2)c[nH]1`: in assay [1], the MIC was > 200 µM. Still for that read-out and setting: as for `CCCCCCC/C=C\CCCCCCCc1c[nH]c(N)n1`, the figure is > 200 µM; as for `CC1(C)CC(=O)N(c2ccc3[nH]c(N)nc3c2)C(=O)C1`, > 200 µM. Same read-out and setting: as for `CCCCCCc1ccc(-c2nc(N)[nH]c2CCCCCC)cc1`, the figure is > 200 µM.

Consider `CCCCCCCCn1cc(Cc2ccccc2)nc1N`, for which, in assay [1], the MIC is > 200 µM. Still for that read-out and setting: with `CCOc1ccc(Cn2c(CCCCCc3cn(CCNC(=O)c4ccc(C)cc4)nn3)cnc2N)cc1OCC` the figure was 100 µM (≈ 56 µg/mL). With `NCC[C@H](O)C(=O)N[C@@H]1C[C@H](N)[C@@H](O[C@H]2O[C@H](CN)[C@@H](O)[C@H](O)[C@H]2O)[C@H](O)[C@H]1O[C@H]1O[C@H](CO)[C@@H](O)[C@H](N)[C@H]1O` [Amikacin, reference compound], the “MIC (μg/mL) of the antibiotic” value in assay [2] was 128 µg/mL. For the compound `Cl.Nc1nc(-c2ccc(NC(=O)/C=C/c3ccccc3)cc2)c[nH]1` [Compound 2], in assay [2] (setting [3]), the “Fold reduction (azithromycin MIC)” value came to 4 fold, the “Fold reduction (clarithromycin MIC)” value was determined as 32 fold and the “Fold reduction (erythromycin MIC)” value is 8 fold. For the same compound, the “Azithromycin MIC” value in assay [2] (setting [4]) came out at 16 µg/mL. In assay [1], the MIC is 100 µM. Consider `CCCCCC(=O)Nc1ccc(-c2c[nH]c(N)n2)cc1.Cl` [Compound 3], for which, in assay [2] (setting [5]), the “Fold reduction (azithromycin MIC)” value was determined as 8 fold, the “Fold reduction (clarithromycin MIC)” value is 32 fold and the “Fold reduction (erythromycin MIC)” value is 16 fold. Also, the “Azithromycin MIC” value in assay [2] (in presence of compound at 60 μM) worked out at 8 µg/mL. Moreover, in assay [1], the MIC was > 200 µM. Turning to `CCCCCCCCCCCNC(=O)CCCc1c[nH]c(C)n1.Cl` [Compound 5], in assay [2] (setting [3]), the “Fold reduction (azithromycin MIC)” value is 8 fold, the “Fold reduction (clarithromycin MIC)” value amounted to 256 fold and the “Fold reduction (erythromycin MIC)” value amounted to 16 fold. Moreover, the “Azithromycin MIC” value in assay [2] (setting [4]) was 8 µg/mL. Further, in assay [1], the MIC was 100 µM. With `CCCCCCCCCCNC(=O)Cn1cc(CCCCCc2c[nH]c(N)n2)nn1.Cl` [Compound 6], the “Fold reduction (erythromycin MIC)” value in assay [2] (setting [5]) turned out to be 4 fold. In assay [1], the MIC is > 200 µM. On the same counts, the results for `CCCCCc1ccc(C(=O)NCCn2cc(CCCCCc3cnc(N)n3Cc3ccc(CCCC)cc3)nn2)cc1` [Compound 7] are 4 fold and 200 µM (≈ 117 µg/mL). For the compound `Nc1nc(-c2ccc(NC(=O)c3cc(F)c(F)c(F)c3)cc2)c[nH]1` [Compound 8], in assay [2] (setting [3]), the “Fold reduction (clarithromycin MIC)” value was determined as 32 fold and the “Fold reduction (erythromycin MIC)” value is 8 fold. Besides, in assay [1], the MIC is 100 µM (≈ 33.2 µg/mL). On the same counts, the results for `Nc1nc(-c2ccc(NC(=O)c3ccc(Cl)c(Cl)c3)cc2)c[nH]1` [Compound 9] are 64 fold, 16 fold and 100 µM (≈ 34.7 µg/mL).

Consider `CCCCCCC(=O)Nc1cccc(-c2c[nH]c(N)n2)c1.Cl` [Compound 11], for which the “Fold reduction (erythromycin MIC)” value in assay [2] (setting [5]) stood at 4 fold. The MIC in assay [1] was > 200 µM. Consider `CCCCCCCCCCn1c(CCCCCC)cnc1N.Cl` [Compound 12], for which, in assay [2] (setting [5]), the “Fold reduction (erythromycin MIC)” value is 4 fold. Also, the MIC in assay [1] was 100 µM. With `Nc1nc(-c2ccc(NC(=O)c3ccccc3F)cc2)c[nH]1` [Compound 22], in assay [1], the MIC was > 200 µM. Take `Nc1nc(-c2ccc(NC(=O)c3ccc(C(F)(F)F)cc3)cc2)c[nH]1` [Compound 23]: the MIC in assay [1] was 50 µM (≈ 17.3 µg/mL).

`Nc1nc(-c2ccc(NC(=O)c3ccc(C(F)(F)F)c(F)c3)cc2)c[nH]1` [Compound 24]: in assay [1], the MIC is 25 µM (≈ 9.11 µg/mL). Turning to `CCCCCCCCCC(=O)N[C@@H](Cc1c[nH]c2ccccc12)C(=O)N[C@H](CC(N)=O)C(=O)N[C@@H](CC(=O)O)C(=O)N[C@@H]1C(=O)NCC(=O)N[C@@H](CCCN)C(=O)N[C@@H](CC(=O)O)C(=O)N[C@H](C)C(=O)N[C@@H](CC(=O)O)C(=O)NCC(=O)N[C@H](CO)C(=O)N[C@@H]([C@H](C)CC(=O)O)C(=O)N[C@@H](CC(=O)c2ccccc2N)C(=O)O[C@@H]1C` [Daptomycin, reference compound], in assay [2], the MIC is 2050 µg/mL. As to `CO[C@@H]1[C@@H](O[C@@H]2O[C@H](C)[C@@H](O[C@H]3C[C@@](C)(O)[C@@H](OC(=O)CC(C)C)[C@H](C)O3)[C@H](N(C)C)[C@H]2O)[C@@H](CC=O)C[C@@H](C)[C@@H](O)/C=C/C=C/C[C@@H](C)OC(=O)C[C@H]1OC(C)=O` [Josamycin, josamycin, reference compound], in assay [2], the “MIC (μg/mL) of the antibiotic” value turned out to be 128 µg/mL.

For `NC[C@H]1O[C@H](O[C@H]2[C@H](O)[C@@H](O[C@H]3O[C@H](CO)[C@@H](O)[C@H](N)[C@H]3O)[C@H](N)C[C@@H]2N)[C@H](O)[C@@H](O)[C@@H]1O` [Kanamycin, reference compound], the MIC in assay [2] was > 512 µg/mL. Still for that read-out and setting: as for `CC(=O)NC[C@H]1CN(c2ccc(N3CCOCC3)c(F)c2)C(=O)O1` [Linezolid, linezolid, reference compound], the figure is 256 µg/mL. Turning to `CO[C@H]1C[C@H](O[C@H]2[C@H](C)[C@@H](O[C@@H]3O[C@H](C)C[C@H](N(C)C)[C@H]3O)[C@@H](C)C[C@@]3(CO3)C(=O)[C@H](C)[C@@H](O)[C@@H](C)[C@@H](C)OC(=O)[C@@H]2C)O[C@@H](C)[C@@H]1O` [Oleandomycin, oleandomycin, reference compound], the “MIC (μg/mL) of the antibiotic” value in assay [2] turned out to be 256 µg/mL. On to `[H]/N=C(/N)N[C@H]1[C@H](O)[C@@H](O)[C@H](O[C@@H]2O[C@@H](C)[C@](O)(C=O)[C@H]2O[C@@H]2O[C@@H](CO)[C@H](O)[C@@H](O)[C@@H]2NC)[C@@H](N/C(N)=N\[H])[C@@H]1O` [Streptomycin, reference compound], for which the MIC in assay [2] is > 512 µg/mL. On the same count and under the same terms, as for `NC[C@H]1O[C@H](O[C@H]2[C@H](O)[C@@H](O[C@H]3O[C@H](CO)[C@@H](O)[C@H](N)[C@H]3O)[C@H](N)C[C@@H]2N)[C@H](N)C[C@@H]1O` [Tobramycin, reference compound], the figure is 256 µg/mL.

Turning to `CO[C@H]1C[C@H](O[C@H]2[C@H](C)[C@@H](O[C@@H]3O[C@H](C)C[C@H](N(C)C)[C@H]3OC(C)=O)[C@@H](C)C[C@@]3(CO3)C(=O)[C@H](C)[C@@H](OC(C)=O)[C@@H](C)[C@@H](C)OC(=O)[C@@H]2C)O[C@@H](C)[C@@H]1OC(C)=O` [Troleandomycin, troleandomycin, reference compound], the MIC in assay [2] is > 512 µg/mL.

Regarding Gentamicin [reference compound], the “MIC (μg/mL) of the antibiotic” value in assay [2] is >512 µg/mL. In the case of Neomycin [reference compound], the “MIC (μg/mL) of the antibiotic” value in assay [2] was determined as 64 µg/mL. Still for that read-out and setting: as for colistin [reference compound], the figure is 0.5 µg/mL.

With spiramycin [reference compound], the “MIC (μg/mL) of the antibiotic” value in assay [2] was >512 µg/mL.
